ChEMBL document CHEMBL1201862, “PubChem BioAssay data set” (2004)
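Following 48 hours of exposure in 96-well plates, responses at five concentrations were used to interpolate endpoints linearly. GI50 marks 50% less growth.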 Activity calls are given as the source filed them. Cut-off read from the data, not from the text of the source: active = GI50 up to about 1.1 µM and inactive = higher.

Tests used:
Test in all cases: NCI anticancer screen, dose series, 48 h
786-0 = tested on: 786-0
COLO 205 = tested on: COLO 205
HCC 2998 = tested on: HCC 2998
HOP-62 = tested on: HOP-62
HT-29 = tested on: HT-29
IGROV-1 = tested on: IGROV-1
K562 = tested on: K562
Malme-3M = tested on: Malme-3M
OVCAR-4 = tested on: OVCAR-4
OVCAR-8 = tested on: OVCAR-8
RXF 393 = tested on: RXF 393
SF-268 = tested on: SF-268
SK-MEL-28 = tested on: SK-MEL-28
SK-MEL-5 = tested on: SK-MEL-5
SNB-19 = tested on: SNB-19
SNB-75 = tested on: SNB-75
TK-10 = tested on: TK-10

Measured: GI50

O=C1CCC(=O)N1Cc1ccccc1/N=[N+](\[O-])c1ccccc1CN1C(=O)CCC1=O
inactive: 786-0 > 100 µM | COLO 205 > 100 µM | HCC 2998 > 100 µM | HOP-62 > 100 µM | HT-29 > 100 µM | IGROV-1 > 100 µM | K562 > 100 µM | Malme-3M > 100 µM | OVCAR-4 > 100 µM | OVCAR-8 > 100 µM | RXF 393 > 100 µM | SF-268 > 100 µM | SK-MEL-28 > 100 µM | SK-MEL-5 > 100 µM | SNB-19 > 100 µM | SNB-75 10.2 µM | TK-10 > 100 µM

C[C@]12CC=CC(=O)[C@@]1(C)CCC(=O)C2
inactive: 786-0 > 100 µM | HCC 2998 > 100 µM | HOP-62 > 100 µM | HT-29 > 100 µM | IGROV-1 > 100 µM | K562 > 100 µM | Malme-3M > 100 µM | OVCAR-4 > 100 µM | OVCAR-8 > 100 µM | RXF 393 > 100 µM | SF-268 > 100 µM | SK-MEL-28 > 100 µM | SK-MEL-5 > 100 µM | SNB-19 > 100 µM | SNB-75 > 100 µM | TK-10 > 100 µM

COc1ccc(C[P+]2(c3ccccc3)CCCCC2)cc1.O=[N+]([O-])c1ccc(C[P+]2(c3ccccc3)CCCCC2)cc1.[O-][Cl+3]([O-])([O-])[O-].[O-][Cl+3]([O-])([O-])[O-]
inactive: 786-0 > 100 µM | COLO 205 52.5 µM | HCC 2998 > 100 µM | HOP-62 77.1 µM | HT-29 10 µM | IGROV-1 47.6 µM | K562 56.1 µM | Malme-3M 19.3 µM | OVCAR-4 > 100 µM | OVCAR-8 > 100 µM | RXF 393 95.9 µM | SF-268 > 100 µM | SK-MEL-28 42.2 µM | SK-MEL-5 23.7 µM | SNB-19 89.7 µM | SNB-75 > 100 µM | TK-10 > 100 µM

O=c1/c(=C/c2ccc3c(c2)OCO3)sc2nnc(-c3ccco3)n12
inactive: 786-0 > 100 µM | COLO 205 > 100 µM | HCC 2998 > 100 µM | HOP-62 > 100 µM | IGROV-1 > 100 µM | K562 > 100 µM | Malme-3M > 100 µM | OVCAR-4 > 100 µM | OVCAR-8 > 100 µM | RXF 393 > 100 µM | SF-268 > 100 µM | SK-MEL-28 > 100 µM | SK-MEL-5 > 100 µM | SNB-19 > 100 µM | SNB-75 28.2 µM | TK-10 > 100 µM
